The target in experiment [1] is T1, Aurora kinase A (Homo sapiens, UniProt O14965).
T1 sequence (O14965 whole entry): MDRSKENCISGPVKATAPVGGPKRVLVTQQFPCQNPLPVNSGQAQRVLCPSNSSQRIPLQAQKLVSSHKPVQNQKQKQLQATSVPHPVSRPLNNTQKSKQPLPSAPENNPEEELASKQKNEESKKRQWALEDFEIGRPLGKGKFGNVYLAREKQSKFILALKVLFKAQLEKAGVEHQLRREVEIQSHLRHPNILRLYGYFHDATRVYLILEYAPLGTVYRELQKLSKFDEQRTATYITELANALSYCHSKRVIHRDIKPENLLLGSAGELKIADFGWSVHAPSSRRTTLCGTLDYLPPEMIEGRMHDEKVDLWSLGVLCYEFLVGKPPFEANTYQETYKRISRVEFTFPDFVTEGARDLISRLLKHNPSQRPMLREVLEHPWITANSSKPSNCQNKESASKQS

The target of experiment [2] is Tyrosine-protein kinase BTK (Homo sapiens, UniProt Q06187).
Tyrosine-protein kinase BTK, sequence (Q06187 whole entry): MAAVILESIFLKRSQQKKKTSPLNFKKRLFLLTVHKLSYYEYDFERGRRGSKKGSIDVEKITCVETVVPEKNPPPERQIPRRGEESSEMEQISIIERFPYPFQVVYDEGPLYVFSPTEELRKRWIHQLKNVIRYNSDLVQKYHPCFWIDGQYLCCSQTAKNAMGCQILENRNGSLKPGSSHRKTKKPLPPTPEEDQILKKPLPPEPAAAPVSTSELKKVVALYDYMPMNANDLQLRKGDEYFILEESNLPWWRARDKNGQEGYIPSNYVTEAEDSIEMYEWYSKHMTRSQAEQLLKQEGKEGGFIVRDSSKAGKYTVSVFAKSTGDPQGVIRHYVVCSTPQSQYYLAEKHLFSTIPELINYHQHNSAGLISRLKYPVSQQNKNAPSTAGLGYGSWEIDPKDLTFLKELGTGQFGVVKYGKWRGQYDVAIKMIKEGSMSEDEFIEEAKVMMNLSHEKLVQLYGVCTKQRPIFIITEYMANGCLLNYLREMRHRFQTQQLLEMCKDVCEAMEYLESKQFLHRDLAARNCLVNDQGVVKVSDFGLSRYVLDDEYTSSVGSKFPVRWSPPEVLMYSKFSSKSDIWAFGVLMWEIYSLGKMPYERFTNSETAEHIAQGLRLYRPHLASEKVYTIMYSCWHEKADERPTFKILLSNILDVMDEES
Experiment [3] deals with Mitotic checkpoint serine/threonine-protein kinase BUB1 (Homo sapiens, UniProt O43683).
Mitotic checkpoint serine/threonine-protein kinase BUB1, sequence (O43683 whole entry): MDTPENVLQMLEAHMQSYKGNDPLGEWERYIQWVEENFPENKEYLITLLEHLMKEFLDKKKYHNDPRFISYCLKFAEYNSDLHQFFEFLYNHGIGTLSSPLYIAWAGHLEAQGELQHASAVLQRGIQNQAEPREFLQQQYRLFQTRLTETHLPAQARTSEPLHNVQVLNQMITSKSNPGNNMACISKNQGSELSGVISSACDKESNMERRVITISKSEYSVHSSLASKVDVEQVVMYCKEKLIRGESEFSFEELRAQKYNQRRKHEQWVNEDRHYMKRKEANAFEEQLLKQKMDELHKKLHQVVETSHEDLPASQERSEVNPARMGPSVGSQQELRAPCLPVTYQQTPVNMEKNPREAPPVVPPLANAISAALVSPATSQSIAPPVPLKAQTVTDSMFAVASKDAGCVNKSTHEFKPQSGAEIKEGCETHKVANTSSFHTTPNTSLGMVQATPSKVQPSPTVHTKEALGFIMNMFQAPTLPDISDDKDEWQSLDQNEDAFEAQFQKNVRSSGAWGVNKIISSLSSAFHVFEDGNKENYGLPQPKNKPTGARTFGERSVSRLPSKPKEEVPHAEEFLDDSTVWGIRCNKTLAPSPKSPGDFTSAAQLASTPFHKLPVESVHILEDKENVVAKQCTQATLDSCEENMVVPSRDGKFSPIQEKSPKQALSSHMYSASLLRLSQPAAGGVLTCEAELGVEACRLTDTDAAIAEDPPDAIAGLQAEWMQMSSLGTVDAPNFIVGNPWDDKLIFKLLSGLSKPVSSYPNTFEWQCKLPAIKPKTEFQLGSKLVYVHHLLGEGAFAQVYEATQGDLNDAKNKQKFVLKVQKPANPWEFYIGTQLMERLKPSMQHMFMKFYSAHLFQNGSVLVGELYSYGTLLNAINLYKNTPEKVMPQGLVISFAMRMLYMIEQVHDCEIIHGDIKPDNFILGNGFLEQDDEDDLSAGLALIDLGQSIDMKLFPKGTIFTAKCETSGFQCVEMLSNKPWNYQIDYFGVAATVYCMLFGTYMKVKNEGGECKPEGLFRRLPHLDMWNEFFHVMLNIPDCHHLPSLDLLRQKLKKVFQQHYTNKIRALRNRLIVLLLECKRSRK
Experiment [4] deals with Cyclin-dependent kinase 1 (Homo sapiens, UniProt P06493).
Cyclin-dependent kinase 1, sequence (P06493 whole entry): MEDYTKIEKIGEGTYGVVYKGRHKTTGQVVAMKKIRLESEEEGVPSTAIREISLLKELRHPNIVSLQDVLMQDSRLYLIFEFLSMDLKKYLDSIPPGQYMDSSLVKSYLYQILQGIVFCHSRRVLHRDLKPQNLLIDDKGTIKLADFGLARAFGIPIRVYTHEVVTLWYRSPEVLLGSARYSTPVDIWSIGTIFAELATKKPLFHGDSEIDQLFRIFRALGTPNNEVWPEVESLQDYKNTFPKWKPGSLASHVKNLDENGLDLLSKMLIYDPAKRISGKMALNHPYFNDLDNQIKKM
Experiment [5] has as its target T2, ATP-dependent RNA helicase DDX42 (Homo sapiens, UniProt Q86XP3).
T2 sequence (Q86XP3 whole entry): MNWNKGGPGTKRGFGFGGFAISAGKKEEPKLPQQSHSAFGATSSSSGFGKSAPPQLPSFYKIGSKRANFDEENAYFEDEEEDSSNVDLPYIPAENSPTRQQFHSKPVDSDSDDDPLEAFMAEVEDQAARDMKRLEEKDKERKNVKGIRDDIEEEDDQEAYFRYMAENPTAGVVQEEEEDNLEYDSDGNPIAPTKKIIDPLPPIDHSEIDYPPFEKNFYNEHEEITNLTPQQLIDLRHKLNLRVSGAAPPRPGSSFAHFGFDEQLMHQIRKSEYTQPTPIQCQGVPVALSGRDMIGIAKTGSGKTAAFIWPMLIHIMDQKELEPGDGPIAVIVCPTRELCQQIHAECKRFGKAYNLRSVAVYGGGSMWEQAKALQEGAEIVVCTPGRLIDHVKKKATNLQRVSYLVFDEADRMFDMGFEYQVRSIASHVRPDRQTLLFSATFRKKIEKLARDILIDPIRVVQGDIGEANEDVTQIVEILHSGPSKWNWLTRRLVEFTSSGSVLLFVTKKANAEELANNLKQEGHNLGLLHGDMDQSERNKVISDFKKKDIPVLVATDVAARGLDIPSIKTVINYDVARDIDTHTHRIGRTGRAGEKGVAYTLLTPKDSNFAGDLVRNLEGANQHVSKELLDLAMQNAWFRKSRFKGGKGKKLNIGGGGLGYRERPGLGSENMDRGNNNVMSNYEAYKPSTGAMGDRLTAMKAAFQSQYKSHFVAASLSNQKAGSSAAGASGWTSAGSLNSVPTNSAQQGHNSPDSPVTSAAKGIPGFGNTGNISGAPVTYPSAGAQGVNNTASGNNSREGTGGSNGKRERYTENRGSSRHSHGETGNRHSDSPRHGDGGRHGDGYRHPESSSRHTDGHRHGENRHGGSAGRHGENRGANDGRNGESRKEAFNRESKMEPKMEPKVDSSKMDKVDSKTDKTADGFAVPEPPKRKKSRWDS

Experiment [6] has as its target Tyrosine-protein kinase Fer (Homo sapiens, UniProt P16591).
The target of experiment [7] is T3, Serine/threonine-protein kinase 3 (Homo sapiens, UniProt Q13188).
T3 sequence (Q13188 whole entry): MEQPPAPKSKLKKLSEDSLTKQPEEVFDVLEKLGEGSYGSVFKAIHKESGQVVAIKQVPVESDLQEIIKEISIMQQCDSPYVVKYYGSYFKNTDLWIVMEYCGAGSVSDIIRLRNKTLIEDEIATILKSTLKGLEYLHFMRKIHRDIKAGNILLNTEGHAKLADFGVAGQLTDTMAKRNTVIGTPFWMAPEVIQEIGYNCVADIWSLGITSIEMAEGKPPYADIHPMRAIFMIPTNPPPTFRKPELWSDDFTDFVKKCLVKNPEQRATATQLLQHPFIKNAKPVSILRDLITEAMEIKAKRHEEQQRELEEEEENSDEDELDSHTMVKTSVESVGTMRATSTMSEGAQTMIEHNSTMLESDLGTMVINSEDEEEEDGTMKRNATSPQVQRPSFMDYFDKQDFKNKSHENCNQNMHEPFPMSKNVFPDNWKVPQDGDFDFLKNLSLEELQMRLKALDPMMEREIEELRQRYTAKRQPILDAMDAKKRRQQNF

In experiment [8] the target is T4, General transcription and DNA repair factor IIH helicase subunit XPD (Homo sapiens, UniProt P18074).
T4 sequence (P18074 whole entry): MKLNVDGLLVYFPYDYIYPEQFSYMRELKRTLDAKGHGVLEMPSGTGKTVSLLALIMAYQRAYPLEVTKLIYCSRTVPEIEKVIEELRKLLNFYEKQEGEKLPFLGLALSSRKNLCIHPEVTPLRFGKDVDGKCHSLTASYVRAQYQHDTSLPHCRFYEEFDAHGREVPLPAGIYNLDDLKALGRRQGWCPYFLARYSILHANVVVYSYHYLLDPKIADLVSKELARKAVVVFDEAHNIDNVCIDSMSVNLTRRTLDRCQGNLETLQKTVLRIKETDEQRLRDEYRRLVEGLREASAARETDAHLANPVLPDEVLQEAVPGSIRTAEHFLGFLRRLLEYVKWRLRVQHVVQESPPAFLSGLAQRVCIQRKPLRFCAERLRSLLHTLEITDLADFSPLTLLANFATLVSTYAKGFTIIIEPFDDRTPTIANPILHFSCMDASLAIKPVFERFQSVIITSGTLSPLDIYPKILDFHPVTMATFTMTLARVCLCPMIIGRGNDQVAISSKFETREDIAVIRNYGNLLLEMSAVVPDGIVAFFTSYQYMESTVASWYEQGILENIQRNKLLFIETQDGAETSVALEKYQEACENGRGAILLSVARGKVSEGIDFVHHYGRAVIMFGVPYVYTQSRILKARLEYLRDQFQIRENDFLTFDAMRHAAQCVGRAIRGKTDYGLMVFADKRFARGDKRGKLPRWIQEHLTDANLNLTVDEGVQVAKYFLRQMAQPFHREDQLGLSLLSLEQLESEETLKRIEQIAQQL
The conditions noted are these: read-out: Kd apparent; k-562, colo 205, sk-n-be(2) and mv-4-11.

The structures appear in SMILES notation. Active and inactive are the calls of the source. Cut-off read from the data, not from the text of the source, for most assays here: actives have a measured Kd and inactives only a lower limit. Some results are limits rather than exact numbers.
Note: in the data inactive means no Kd found up to 30 µM.

Tyrosine-protein kinase Fer, sequence (P16591 whole entry): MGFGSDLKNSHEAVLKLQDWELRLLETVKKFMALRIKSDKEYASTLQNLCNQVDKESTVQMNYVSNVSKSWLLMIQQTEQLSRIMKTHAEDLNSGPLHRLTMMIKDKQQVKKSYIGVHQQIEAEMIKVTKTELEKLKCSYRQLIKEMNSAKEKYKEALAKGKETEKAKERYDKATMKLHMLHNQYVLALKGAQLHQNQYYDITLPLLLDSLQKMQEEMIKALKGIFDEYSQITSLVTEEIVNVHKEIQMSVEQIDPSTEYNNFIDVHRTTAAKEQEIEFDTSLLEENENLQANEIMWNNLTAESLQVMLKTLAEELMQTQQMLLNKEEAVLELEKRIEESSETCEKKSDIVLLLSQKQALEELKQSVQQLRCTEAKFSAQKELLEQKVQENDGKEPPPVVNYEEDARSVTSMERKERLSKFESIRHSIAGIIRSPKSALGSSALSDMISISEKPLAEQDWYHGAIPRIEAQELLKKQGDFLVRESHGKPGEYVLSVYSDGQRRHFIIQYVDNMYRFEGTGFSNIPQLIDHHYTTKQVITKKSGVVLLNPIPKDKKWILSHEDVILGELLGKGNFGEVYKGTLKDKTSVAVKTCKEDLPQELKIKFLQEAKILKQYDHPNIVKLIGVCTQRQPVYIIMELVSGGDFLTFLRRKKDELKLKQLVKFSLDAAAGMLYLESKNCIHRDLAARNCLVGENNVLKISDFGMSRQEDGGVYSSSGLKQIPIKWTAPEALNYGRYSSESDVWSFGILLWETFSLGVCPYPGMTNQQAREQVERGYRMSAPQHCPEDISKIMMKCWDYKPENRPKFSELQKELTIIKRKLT

In the case of `Cc1cnc(NC(=O)Nc2cc(Br)c(C)cc2OC[C@@H]2CNCCO2)cn1` [RABUSERTIB], the Kd in experiment [1], in experiment [2], in experiment [3], in experiment [4], in experiment [5] and in experiment [6] was > 30 µM (inactive) in each case. Moreover, the Kd in experiment [7] and in experiment [8] was > 30 µM (inactive) throughout.
`CO[C@H]1C[C@@H]2CC[C@@H](C)[C@@](O)(O2)C(=O)C(=O)N2CCCC[C@H]2C(=O)O[C@H]([C@H](C)C[C@@H]2CC[C@@H](OP(C)(C)=O)[C@H](OC)C2)CC(=O)[C@H](C)/C=C(\C)[C@@H](O)[C@@H](OC)C(=O)[C@H](C)C[C@H](C)/C=C/C=C/C=C/1C` [RIDAFOROLIMUS]: the Kd in experiment [1], in experiment [2], in experiment [3], in experiment [4], in experiment [5] and in experiment [6] was > 30 µM (inactive) throughout. Besides, the Kd in experiment [7] and in experiment [8] was > 30 µM (inactive) each time.
Take `N#CC1(c2ccc(NC(=O)c3cccnc3NCc3ccncc3)cc2)CCCC1` [RIVOCERANIB]: the Kd in experiment [1], in experiment [2], in experiment [3], in experiment [4], in experiment [5] and in experiment [6] was > 30 µM (inactive) in each case. Moreover, the Kd in experiment [7] and in experiment [8] was > 30 µM (inactive) throughout.
Turning to `O=c1[nH]ccc2cc(OC3CCNCC3)ccc12` [SAR-407899 FREE BASE], the Kd in experiment [1], in experiment [2], in experiment [3], in experiment [4], in experiment [5] and in experiment [6] was > 30 µM (inactive) each time. Further, the Kd in experiment [7] and in experiment [8] was > 30 µM (inactive) in each case.
As for `CN1CCN(CCOc2cc(OC3CCOCC3)c3c(Nc4c(Cl)ccc5c4OCO5)ncnc3c2)CC1` [SARACATINIB], the Kd in experiment [1] is > 30 µM (inactive); in experiment [2], 10.2 µM (active); in experiment [3], > 30 µM (inactive); in experiment [4] it was > 30 µM (inactive); in experiment [5] it was > 30 µM (inactive); in experiment [6], > 30 µM (inactive). The Kd in experiment [7] and in experiment [8] was > 30 µM (inactive) throughout.
With `Cn1cc(-c2cnn3c(N)c(Br)c([C@@H]4CCCNC4)nc23)cn1` [SCH-900776], the Kd in experiment [1], in experiment [2], in experiment [3], in experiment [4], in experiment [5] and in experiment [6] was > 30 µM (inactive) in each case. Moreover, the Kd in experiment [7] and in experiment [8] was > 30 µM (inactive) each time.
For `CO[C@H]1C[C@@H]2CC[C@@H](C)[C@@](O)(O2)C(=O)C(=O)N2CCCC[C@H]2C(=O)O[C@H]([C@H](C)C[C@@H]2CC[C@@H](OC(=O)C(C)(CO)CO)[C@H](OC)C2)CC(=O)[C@H](C)/C=C(\C)[C@@H](O)[C@@H](OC)C(=O)[C@H](C)C[C@H](C)/C=C/C=C/C=C/1C` [TEMSIROLIMUS], the Kd in experiment [1], in experiment [2], in experiment [3], in experiment [4], in experiment [5] and in experiment [6] was > 30 µM (inactive) throughout. The Kd in experiment [7] and in experiment [8] was > 30 µM (inactive) throughout.
Take `COc1cc2c(Nc3ccc(Cl)c(Cl)c3F)ncnc2cc1OC[C@@H]1C[C@@H]2CN(C)C[C@@H]2C1` [TESEVATINIB]: the Kd was > 30 µM (inactive) in experiment [1]; 1.62 µM (active) in experiment [2]; > 30 µM (inactive) in experiment [3]; > 30 µM (inactive) in experiment [4]; > 30 µM (inactive) in experiment [5]; > 30 µM (inactive) in experiment [6]. Moreover, the Kd in experiment [7] and in experiment [8] was > 30 µM (inactive) each time.
Turning to `O=C(Cc1ccc(-c2ccc(OCCN3CCOCC3)cc2)cn1)NCc1ccccc1` [TIRBANIBULIN], the Kd in experiment [1], in experiment [2], in experiment [3], in experiment [4], in experiment [5] and in experiment [6] was > 30 µM (inactive) throughout. Also, the Kd in experiment [7] and in experiment [8] was > 30 µM (inactive) each time.
Regarding `O=C1NC(=O)[C@@H](c2cn3c4c(cccc24)CCC3)[C@@H]1c1c[nH]c2ccccc12` [TIVANTINIB], the Kd in experiment [1], in experiment [2], in experiment [3], in experiment [4], in experiment [5] and in experiment [6] was > 30 µM (inactive) each time. For the same compound, the Kd in experiment [7] and in experiment [8] was > 30 µM (inactive) throughout.
With `C[C@@H](NC(=O)c1ncnc(N)c1Cl)c1ncc(C(=O)Nc2cc(C(F)(F)F)c(Cl)cn2)s1` [TOVORAFENIB], the Kd in experiment [1], in experiment [2], in experiment [3], in experiment [4], in experiment [5] and in experiment [6] was > 30 µM (inactive) each time. The Kd in experiment [7] and in experiment [8] was > 30 µM (inactive) each time.

Values taken from ChEMBL document CHEMBL3991601, “The target landscape of clinical kinase drugs” (Science, 2017).
